# US8912120B2, “Herbicidal compositions comprising 4-amino-3-chloro-5-fluoro-6-(4-chloro-2-fluoro-3-methoxyphenyl) pyridine-2-carboxylic acid or a derivative thereof and synthetic auxin herbicides” (Dow AgroSciences, LLC., priority 2012, dated 2014)
# Several values for one entry are separate records, joined by “and”; a condition that tells them apart may be missing. Equal entries are not always repeated.
# Tests used:
# ISCRU = experiment: Example I: postemergence foliar-applied herbicidal mixtures, direct seeded rice, ISCRU; assay type: in vivo, Ischaemum rugosum (saramollagrass)
# Procedure: (§6) The soil matrix was contained in plastic pots with a volume of 1 quart and a surface area of 83.6 square centimeters (cm^2). […] The plants were grown for 8-22 days in a greenhouse with an approximate 14 h photoperiod which was maintained at about 29° C. during the day and 26° C. during the night. Nutrients (Peters Excel® 15-5-15 5-Ca 2-Mg and iron chelate) were applied in the irrigation solution as needed and water was added on a regular basis. Supplemental lighting was provided with overhead metal halide 1000-Watt lamps as necessary. The plants were employed for testing when they reached the first through fourth true leaf stage.
# (§7) Treatments consisted of the acid or esters of 4-amino-3-chloro-5-fluoro-6-(4-chloro-2-fluoro-3-methoxy-phenyl)pyridine-2-carboxylic acid (Compound A), each formulated as an SC (suspension concentrate), and various herbicidal components alone and in combination. Forms of compound A were applied on an acid equivalent basis.
# (§8) For treatments comprised of formulated compounds, measured amounts of compounds were placed individually in 25 mL glass vials and diluted in a volume of 1.25% (v/v) Agri-Dex® crop oil concentrated to obtain 12× stock solutions. […] Application solutions were prepared by adding an appropriate amount of each stock solution (e.g., 1 mL) and diluted to the appropriate final concentrations with the addition of 10 mL of an aqueous mixture of 1.25% (v/v) crop oil concentrate so that the final spray solutions contained 1.25+/−0.05% (v/v) crop oil concentrate.
# (§9) All stock solutions and applications solutions were visually inspected for compound compatibility prior to application. Spray solutions were applied to the plant material with an overhead Mandel track sprayer equipped with a 8002E nozzles calibrated to deliver 187 L/ha over an application area of 0.503 m^2 at a spray height of 18 to 20 inches (46 to 50 cm) above average plant canopy height. Control plants were sprayed in the same manner with the solvent blank.
# (§10) The treated plants and control plants were placed in a greenhouse as described above and watered by sub-irrigation to prevent wash-off of the test compounds. After approximately 3 weeks, the condition of the test plants as compared with that of the untreated plants was determined visually and scored on a scale of 0 to 100 percent where 0 corresponds to no injury or growth inhibition and 100 corresponds to complete kill.
# (§11) Colby's equation was used to determine the herbicidal effects expected from the mixtures (Colby, S. R. 1967. Calculation of the synergistic and antagonistic response of herbicide combinations. Weeds 15:20-22).
# The following equation was used to calculate the expected activity of mixtures containing two active ingredients, A and B: Expected=A+B−(A×B/100)
# A=observed efficacy of active ingredient A at the same concentration as used in the mixture.
# B=observed efficacy of active ingredient B at the same concentration as used in the mixture.
# ELEIN = experiment: Example III: postemergence foliar-applied herbicidal mixtures, weeds common to row crops such as corn and soybeans (greenhouse), ELEIN; assay type: in vivo, Eleusine indica (goosegrass)
# Procedure: (§1) The plants were grown for 7-31 days (d) in a greenhouse with an approximate 15 hour (h) photoperiod which was maintained at about 23-29° C. during the day and 22-28° C. during the night.
# SORHA = experiment: Example III: postemergence foliar-applied herbicidal mixtures, row crop weeds, SORHA; assay type: in vivo, Sorghum halepense (johnsongrass); conditions: 13 DAA
# Procedure: as §1
# BRSNN = experiment: Example IV: postemergence foliar-applied herbicidal mixtures, cereal crops, BRSNN; assay type: in vivo, Brassica napus (volunteer canola); conditions: 8.75 gai/ha
# Procedure: (§2) Seeds of the desired test plant species were planted in Sun Gro MetroMix 306 planting mixture, which typically has a pH of 6.0 to 6.8 and an organic matter content of about 30 percent, in plastic pots with a surface area of 103.2 square centimeters (cm^2). […] The plants were grown for 7-36 days in a greenhouse with an approximate 14 hour photoperiod which was maintained at about 18° C. during the day and 17° C. during the night.
# (§3) Spray solutions of the second cereal herbicide and experimental compound mixtures were prepared by adding the stock solutions to the appropriate amount of dilution solution to form 12 mL spray solution with active ingredients in two- and three-way combinations.
# CIRAR [1] = experiment: Example IV: postemergence foliar-applied herbicidal mixtures, cereal crops, CIRAR; assay type: in vivo, Cirsium arvense (Canada thistle); conditions: alone, 8.75 gai/ha, 20-22 days
# Procedure: as §2, §3
# POLCO = experiment: Example IV: postemergence foliar-applied herbicidal mixtures, cereal crops, POLCO; assay type: in vivo, Polygonum convolvulus (wild buckwheat); conditions: 8.75 gai/ha
# Summary of the method: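 Greenhouse plants were grown 7–36 days in potting mix (pH 6.0–6.8) under ~14 h photoperiod at about 18 °C day/17 °C night. Postemergence foliar sprays (12 mL) contained the second cereal herbicide with experimental compound as two- and three-way mixtures.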
# CASOB = experiment: Example V: postemergence herbicidal activity of mixtures in forage crops (greenhouse), CASOB; assay type: in vivo, Cassia obtusifolia (sicklepod); conditions: alone, foliar, approximately 21 days
# Procedure: as §2, with “Seeds or root cuttings” for “Seeds”, “MetroMix®” for “MetroMix”, “126.6” for “103.2”, “14-60” for “7-36”, “approximately 28°” for “about 18°”, “24°” for “17°”
# (§4) Spray solutions of the second herbicide or experimental compound mixtures were prepared by adding the stock solutions to the appropriate amount of dilution solution to form 12 mL spray solution with active ingredients in two-way combinations.
# CENMA = experiment: Example V: postemergence herbicidal activity of mixtures in forage crops, CENMA; assay type: in vivo, Centaurea maculosa (spotted knapweed); conditions: alone, foliar, approximately 21 days
# Summary of the method: (§5)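 Plants grown from seed or root cuttings in MetroMix 306 (pH 6.0–6.8) for 14–60 days in greenhouse, ~14 h photoperiod, ~28/24 °C day/night. Foliar spray of two-way mixtures of the second herbicide or experimental compounds applied postemergence.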
# CIRAR [2] = experiment: Example V: postemergence herbicidal activity of mixtures in forage crops, CIRAR; assay type: in vivo, Cirsium arvense (Canada thistle); conditions: alone, foliar, approximately 21 days
# Procedure: as §2, with “Seeds or root cuttings” for “Seeds”, “MetroMix®” for “MetroMix”, “126.6” for “103.2”, “14-60” for “7-36”, “approximately 28°” for “about 18°”, “24°” for “17°”
# as §4
# SIDSP = experiment: Example V: postemergence herbicidal activity of mixtures in forage crops, SIDSP; assay type: in vivo, Sida spinosa (prickly sida); conditions: alone, foliar, approximately 21 days
# Procedure: as §2, with “Seeds or root cuttings” for “Seeds”, “MetroMix®” for “MetroMix”, “126.6” for “103.2”, “14-60” for “7-36”, “approximately 28°” for “about 18°”, “24°” for “17°”
# as §4
# SINAR = experiment: Example V: postemergence herbicidal activity of mixtures in forage crops, SINAR; assay type: in vivo, Sinapis arvensis (wild mustard); conditions: alone, foliar, approximately 21 days
# Summary of the method: as §5
# SONAR = experiment: Example V: postemergence herbicidal activity of mixtures in forage crops, SONAR; assay type: in vivo, Sonchus arvensis (field sowthistle); conditions: alone, foliar, approximately 21 days
# Summary of the method: as §5
# SOOSS = experiment: Example V: postemergence herbicidal activity of mixtures in forage crops, SOOSS; assay type: in vivo, Solidago L. spec. (goldenrod); conditions: alone, foliar, approximately 21 days
# Procedure: as §2, with “Seeds or root cuttings” for “Seeds”, “MetroMix®” for “MetroMix”, “126.6” for “103.2”, “14-60” for “7-36”, “approximately 28°” for “about 18°”, “24°” for “17°”
# as §4
# TRFRE = experiment: Example V: postemergence herbicidal activity of mixtures in forage crops, TRFRE; assay type: in vivo, Trifolium repens (white clover); conditions: alone, foliar, approximately 21 days
# Procedure: as §2, with “Seeds or root cuttings” for “Seeds”, “MetroMix®” for “MetroMix”, “126.6” for “103.2”, “14-60” for “7-36”, “approximately 28°” for “about 18°”, “24°” for “17°”
# as §4
# CYPES = experiment: Example I: postemergence foliar-applied herbicidal mixtures, direct seeded rice, CYPES; assay type: in vivo, Cyperus esculentus (yellow nutsedge); conditions: 4.38 gae/ha
# Procedure: as §6, §7, §8, §9, §10, §11
# The following equation was used to calculate the expected activity of mixtures containing two active ingredients, A and B: Expected=A+B−(A×B/100) […]
# FIMMI = experiment: Example II: in-water applied herbicidal mixtures, transplanted paddy rice, FIMMI; assay type: in vivo, Fimbristylis miliacea (globe fringerush); conditions: 22 DAA; 10.6 gae/ha
# Procedure: The prepared mud was dispensed in 365 mL aliquots into 16-ounce (oz.) non-perforated plastic pots with a surface area of 86.59 square centimeters (cm^2) leaving a headspace of 3 centimeters (cm) in each pot Mud was allowed to dry overnight prior to planting or transplanting. Rice seeds were planted in Sun Gro MetroMix® 306 planting mixture, which typically has a pH of 6.0 to 6.8 and an organic matter content of about 30 percent, in plastic plug trays. Seedlings at the second or third leaf stage of growth were transplanted into 840 mL of mud contained in 32-oz. non-perforated plastic pots with a surface area of 86.59 cm^2 4 days prior to herbicide application. […] Nutrients were added as Osmocote® (19:6:12, N:P:K^+ minor nutrients) at 2 g per 16-oz. pot and 4 g per 32-oz. pot.
# Applications were made by injecting with a pipetter appropriate amounts of the application solutions, individually and sequentially, into the aqueous layer of the paddy. Control plants were treated in the same manner with the solvent blank. Applications were made so that all treated plant material received the same concentrations of acetone and crop oil concentrate.
# SCPJU = experiment: Example II: in-water applied herbicidal mixtures, transplanted paddy rice, SCPJU; assay type: in vivo, Schoenoplectus juncoides (Japanese bulrush); conditions: for Visual Weed Control (%) - 21 DAA SCPJU Obs / Visual Weed Control (%) - 25 DAA SCPJU Obs: in-water application
# Summary of the method: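 Greenhouse paddy pots of dried mud; rice seedlings at the second or third leaf stage were transplanted into mud 4 days before treatment. Osmocote 19:6:12 supplied nutrients. Solutions were pipetted individually and sequentially into the paddy water, with equal acetone and crop oil concentrate across treatments; controls got solvent blank.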
# PANDI = experiment: Example III: postemergence foliar-applied herbicidal mixtures, row crop weeds, PANDI; assay type: in vivo, Panicum dichotomiflorum (fall panicum); conditions: 16 DAA; 3.75 gae/ha
# Procedure: as §1
# CYPIR = experiment: Example II: in-water applied herbicidal mixtures, transplanted paddy rice, CYPIR; assay type: in vivo, Cyperus iria L. (flatsedge; conditions: 21 DAA
compound,measurement,setting,value
"COc1c(Cl)ccc(-c2nc(C(=O)OCc3ccccc3)c(Cl)c(N)c2F)c1F [Compound A Benzyl Ester, benzyl ester of 4-amino-3-chloro-5-fluoro-6-(4-chloro-2-fluoro-3-methoxy-phenyl)pyridine-2-carboxylic acid]",Visual Weed Control (%) - 21 DAA ISCRU Obs,ISCRU; 8 gae/ha,20%
same,Visual Weed Control (%) - 21 DAA ISCRU Obs,ISCRU; 16 gae/ha,0%
same,Visual Weed Control (%) Obs,"ELEIN; 14 DAA, 3.75 gae/ha",0%
same,Visual Weed Control (%) Obs,"ELEIN; 17 DAA, 7.5 gae/ha",20%
same,Visual Weed Control (%) Obs,SORHA; 3.75 gae/ha,0%
same,Visual Weed Control (%) Obs,SORHA; 7.5 gae/ha,0%
same,Visual Weed Control (%) Obs,SORHA; 15 gae/ha,10%
same,Weed Control Ob,BRSNN; after 20-22 days,23%
same,BRSNN Ob (observed value),"BRSNN; alone, foliar, 20-22 days",23%
same,CIRAR Ob (observed value),CIRAR [1],70%
same,Weed Control Ob,POLCO; after 20-22 days,50%
same,POLCO Ob (observed value),"POLCO; alone, foliar, 20-22 days",50%
same,CASOB Obs (observed value),CASOB; 1.1 gae/ha,28%
same,CASOB Obs (observed value),CASOB; 2.2 gae/ha,33%
same,CASOB Obs (observed value),CASOB; 4.4 gae/ha,38%
same,CENMA Obs (observed value),CENMA; 4.4 gae/ha,70%
same,CENMA Obs (observed value),CENMA; 8.8 gae/ha,85%
same,CENMA Obs (observed value),CENMA; 17.5 gae/ha,95%
same,CIRAR Obs (observed value),CIRAR [2]; 2.2 gae/ha,25%
same,CIRAR Obs (observed value),CIRAR [2]; 4.4 gae/ha,30% and 25%
same,CIRAR Obs (observed value),CIRAR [2]; 8.8 gae/ha,30%
same,CIRAR Obs (observed value),CIRAR [2]; 17.5 gae/ha,30%
same,SIDSP Obs (observed value),SIDSP; 1.1 gae/ha,72%
same,SIDSP Obs (observed value),SIDSP; 2.2 gae/ha,77%
same,SIDSP Obs (observed value),SIDSP; 4.4 gae/ha,85%
same,SINAR Obs (observed value),SINAR; 1.1 gae/ha,72%
same,SINAR Obs (observed value),SINAR; 2.2 gae/ha,98%
same,SINAR Obs (observed value),SINAR; 4.4 gae/ha,80% and 100%
same,SINAR Obs (observed value),SINAR; 8.8 gae/ha,100%
same,SINAR Obs (observed value),SINAR; 17.5 gae/ha,100%
same,SONAR Obs (observed value),SONAR; 4.4 gae/ha,65%
same,SONAR Obs (observed value),SONAR; 8.8 gae/ha,100%
same,SONAR Obs (observed value),SONAR; 17.5 gae/ha,95%
same,SOOSS Obs (observed value),SOOSS; 2.2 gae/ha,15%
same,SOOSS Obs (observed value),SOOSS; 17.5 gae/ha,100%
same,TRFRE Obs (observed value),TRFRE; 4.4 gae/ha,0%
same,TRFRE Obs (observed value),TRFRE; 8.8 gae/ha,10%
same,TRFRE Obs (observed value),TRFRE; 17.5 gae/ha,30%
"COc1c(Cl)ccc(-c2nc(C(=O)O)c(Cl)c(N)c2F)c1F [Compound A Acid, 4-amino-3-chloro-6-(4-chloro-2-fluoro-3-methoxyphenyl)-5-fluoropyridine-2-carboxylic acid]",Visual Weed Control (%) - 21 DAA CYPES Obs,CYPES,18%
same,Visual Weed Control (%) Obs,FIMMI,40%
same,Visual Weed Control (%) - 21 DAA SCPJU Obs,SCPJU; 8.75 gae/ha,15%
same,Visual Weed Control (%) - 25 DAA SCPJU Obs,SCPJU; 8.75 gae/ha,65%
same,Visual Weed Control (%) - 21 DAA SCPJU Obs,SCPJU; 17.5 gae/ha,80%
same,Visual Weed Control (%) - 25 DAA SCPJU Obs,SCPJU; 17.5 gae/ha,80%
same,Visual Weed Control (%) Obs,"SCPJU; 22 DAA, 10.6 gae/ha",60%
same,Visual Weed Control (%) Obs,"SCPJU; 25 DAA, 8.75 gae/ha",65%
same,Visual Weed Control (%) Obs,"SCPJU; 25 DAA, 17.5 gae/ha",80%
same,Visual Weed Control (%) Obs,"SCPJU; 25 DAA, 35 gae/ha",95%
same,Visual Weed Control (%) - 25 DAA SCPJU Obs,SCPJU; 35 gae/ha,95%
same,Visual Weed Control (%) Obs,PANDI,60%
same,Visual Weed Control (%) Obs,CYPIR; 8.75 gae/ha,0%
same,Visual Weed Control (%) Obs,CYPIR; 17.5 gae/ha,0%
same,Visual Weed Control (%) Obs,CYPIR; 35 gae/ha,95%
